Results taken from patent publication US20250052985A1, “SYSTEM AND METHOD FOR QUANTITATIVE PHASE IMAGING FOR MULTI-PARAMETRIC SCREENING OF TUMOR THERAPY RESPONSE” (UNIVERSITY OF UTAH RESEARCH FOUNDATION, priority 2023, published 2025).
Where “and” joins values, the source holds several entries; their conditions need not be identical. Identical values can stand only once. Like-named read-outs stand apart in the source and are kept apart here.

Assays:
BT-474 cells [1] = assay: CellTiter-Glo (CTG) ATP viability assay, BT-474; assay type: cell-based; conditions: for Min Asymptote: BT-474, Hill fit of luminescence normalized to solvent control, one line per replicate; for DoR CTG: BT-474 cell line, depth of response, CellTiter-Glo; for EC50: Homo sapiens, read-out: log10(EC50) (converted)
Method: (§1) CTG (e.g., read by the CTG reader 115) is a cell viability assay that quantifies the amount of ATP present at the end of an experiment as an indicator of the number of live cells. The electronic controller 155 measures ATP content in each condition as a readout by a luminescent signal, which is normalized by the luminescence of the control (e.g., a control well) to determine cell viability relative to on-plate controls. In some embodiments, the CTG assay is performed by first removing 100 μL of media from each well on the well-plate 105, which is then replaced with an equal amount of CellTiter-Glo reagent (e.g., Promega, G7572). Assayed plates may be shaken at 500 RPM for 20 minutes and allowed to rest for 10 minutes. In some instances, 100 μL of volume from each well is transferred to a white 96-well plate (e.g., Perkin Elmer, 6005680). The electronic controller 155 collects luminescence data from each well using an Envision plate reader (e.g., Perkin Elmer) and normalized against the solvent control to measure ATP content. The electronic controller 155 fits a 4-parameter hill curve to the dose response to determine the EC50 and depth of response.

MDA-MB-231 cells = assay: CellTiter-Glo (CTG) ATP viability assay, MDA-MB-231; assay type: cell-based; conditions: for Min Asymptote: MDA-MB-231, Hill fit of luminescence normalized to solvent control, one line per replicate; for EC50: Homo sapiens, read-out: log10(EC50) (converted); for DoR CTG: MDA-MB-231 cell line, depth of response, CellTiter-Glo
Method: as §1

BT-474 cells [2] = assay: cells; conditions: for Max Asymptote / Min Asymptote: BT-474, 4-parameter Hill fit of mean SGR vs concentration, one line per replicate; for Hill Slope / log10(EC50): BT-474, Hill fit; for DoR QPI / ToR 20 μM: BT-474 cell line; for DoR QPI: depth of response; for ToR 20 μM: time of response at 20 μM; for EC50: Homo sapiens
Source text: (§2) In some embodiments, breast cancer cell lines are imaged, representing diverse clinical subtypes, summarized in Table 2 below, using a QPI microscope (FIG. 1A) based on differential phase contrast (DPC) microscopy and phase reconstruction via a QPI microscope system. DPC is used for image acquisition and phase reconstruction because DPC's flexible design may be customized for high throughput phase measurements. […] As illustrated in the embodiment of FIG. 1A, a QPI microscope system 100 conducts assays in a 96-well plate (e.g., a well-plate 105) with 6-point dose response curves and up to five therapies in triplicate including solvent controls, summarized in Table 4 below. As described below, in reference to FIG. 1A, a growth response of cells is measured noninvasively using QPI via a QPI microscope system 110 before being assayed using a CTG reader 115.
(§3) FIG. 1B illustrates a timeline plot 200 showing two plates (e.g., two, separate well-plates 105) set up in parallel to measure cell viability. With reference to FIG. 1B, two plates are set-up simultaneously for each experiment. A first plate 205 is incubated for 27 hours (h) post drug exposure prior to CTG analysis (3 h equilibration+24 h of imaging), which measures cell adenosine triphosphate (ATP) content as a surrogate for cell viability. A second plate 210 is imaged for 72 h after 3 h equilibration (e.g., 75 h) and followed by CTG. […] The imaging locations are imaged for 72 h, as shown by images 1700-1715 of FIG. 7.
(§4) In some embodiments, a dose-dependent change in growth, as indicated by a change in the rate of mass accumulation or loss, is a parameter that can be extracted from QPI dose-response data. […] Individual specific growth rate measurements are indicated by points in the distribution of the graph 1200 of FIG. 2A. Blue is indicative of the DMSO control and red is indicative of doxorubicin. The black outline is a kernel density function fit to the distribution of specific growth rates for each condition (e.g., *p<0.05, **p<0.01). In some embodiments, the average SGR of each condition is fit to a sigmoid dose-response curve using a Hill equation. For example, computed logistic fit parameters using a 4-parameter Hill model via the QPI microscope system 110 for all conditions are summarized in Tables 5-8 below. To determine if there is a response, as illustrated by FIG. 2B, the QPI microscope system 110 tests goodness of fit, adjusts for degrees of freedom using an F-test at significance p<0.01 by comparison to a flat line, as an indicator of no response. For cases with a better fit to the Hill equation, the 4-parameter Hill curve may be used by the QPI microscope system 110 to determine the EC50, a measure of sensitivity to therapy because it represents the effective concentration at which 50% of the cells respond to therapy, as illustrated by FIG. 10. […] A 4-parameter Hill curve is fit to each dose response plot to extract the depth of response and EC50 for each cell/drug pair. A flat line represents no response due to failure of the F-test to reject the null hypothesis that the logistic fit is indistinguishable from a flat line. […] Each color indicates a different drug or therapy used.

MCF-7 cells [3] = assay: cells; conditions: for Max Asymptote / Min Asymptote: MCF-7, 4-parameter Hill fit of mean SGR vs concentration, one line per replicate; for Hill Slope: MCF-7, Hill fit; for DoR QPI / ToR 20 μM: MCF-7 cell line; for DoR QPI: depth of response; for ToR 20 μM: time of response at 20 μM
Source text: as §2, §3, §4

MCF-7 cells [4] = assay: CellTiter-Glo (CTG) ATP viability assay, MCF-7; assay type: cell-based; conditions: for Min Asymptote: MCF-7, Hill fit of luminescence normalized to solvent control, one line per replicate; for EC50: Homo sapiens; for DoR CTG: MCF-7 cell line, depth of response
Method: as §1

[5] = BT-474, 24 h, 24 h CTG, BT-474, Hill fit
[6] = MDA-MB-231, 24 h, 24 h CTG, MDA-MB-231, Hill fit
[7] = 72 h QPI, EC50 in μM per Table 1
[8] = BT-474, 72 h, read-out: log10(EC50), 72 h QPI, BT-474, Hill fit (converted), EC50 in μM per Table 1
[9] = MCF7, 72 h, 72 h CTG, MCF-7, Hill fit, read-out: log10(EC50) (converted)

## CC(=O)O[C@@]12CO[C@@H]1C[C@H](O)[C@@]1(C)C(=O)[C@H](O)C3=C(C)[C@@H](OC(=O)[C@H](O)[C@@H](NC(=O)OC(C)(C)C)c4ccccc4)C[C@@](O)([C@@H](OC(=O)c4ccccc4)[C@H]21)C3(C)C [Docetaxel]
BT-474 cells [1]; 24 h CTG, BT-474, Hill fit
  Hill Slope: 7.175
BT-474 cells [1]; 24 h CTG
  Min Asymptote: 0.8491
BT-474 cells [1]; 72 h CTG, BT-474, Hill fit
  Hill Slope: 7.938 and 5.667
  log10(EC50): 2.403
BT-474 cells [1]; 72 h CTG
  Min Asymptote: 0.2805 and 0.3348
BT-474 cells [1]
  DoR CTG: 0.6
BT-474 cells [1]; [5]
  EC50: 13.7 nM
BT-474 cells [1]; BT-474, 72 h, 72 h CTG, BT-474, Hill fit
  EC50: 3.34 nM
MDA-MB-231 cells; 24 h CTG, MDA-MB-231, Hill fit
  Hill Slope: 7.175
MDA-MB-231 cells; 24 h CTG
  Min Asymptote: 0.8491
MDA-MB-231 cells; 72 h CTG, MDA-MB-231, Hill fit
  log10(EC50): 2.342
MDA-MB-231 cells; 72 h CTG
  Min Asymptote: 0.3348 and 0.2561
MDA-MB-231 cells; [6]
  EC50: 13.7 nM
MDA-MB-231 cells; MDA-MB-231, 72 h, 72 h CTG, MDA-MB-231, Hill fit
  EC50: 3.96 nM
MDA-MB-231 cells
  DoR CTG: 0.7
BT-474 cells [2]; 24 h QPI
  Max Asymptote: 0.009874 and 0.01051
  Min Asymptote: 0.00518 and 0.00803
  Hill Slope: 0.2745 and 0.5361
BT-474 cells [2]; 72 h QPI
  Max Asymptote: 0.00164 and 0.002702
  Min Asymptote: 0.009387 and 0.007464
  Hill Slope: 3.8183 and 2.5139
BT-474 cells [2]; [7]
  log10(EC50): 2.1891
BT-474 cells [2]; BT-474, 0.016 μM
  growth rate and heterogeneity over time: decreased growth rate and increased heterogeneity
BT-474 cells [2]; BT-474, 0.4 μM
  growth rate and heterogeneity over time: reduced growth rate and increased heterogeneity
BT-474 cells [2]; BT-474, 2 μM
  growth rate and heterogeneity over time: population heterogeneity is increased and growth rate decreases
BT-474 cells [2]; BT-474, 20 μM
  growth rate and heterogeneity over time: decreases, while the heterogeneity for both populations increases
BT-474 cells [2]; BT-474, 20 μM, with significant decrease in mean response
  change of population spread (SD) of SGR: no significant change to the spread
BT-474 cells [2]; BT-474, FIG. 5E, 22, 23
  response of growth rate and heterogeneity to treatment: both reduced growth rate and slightly increased heterogeneity
BT-474 cells [2]
  DoR QPI: 0.8
  ToR 20 μM: 10.9
BT-474 cells [2]; [8]
  EC50: 0.00383 µM
MCF-7 cells [3]; 24 h QPI
  Max Asymptote: 0.02457 and 0.02891 and 0.02213
  Min Asymptote: 0.01057 and 0.01168 and 0.008144
  Hill Slope: 1.6196 and 1.4393 and 1.4829
MCF-7 cells [3]; 72 h QPI
  Max Asymptote: 0.00408 and 0.005816 and 0.004488
  Min Asymptote: 0.021 and 0.02567 and 0.0188
  Hill Slope: 1.6038 and 0.9248 and 1.3228
MCF-7 cells [3]; Homo sapiens, MCF7, read-out: EC50, QPI, MCF-7 cell line, QPI growth rate
  EC50: 0.912 nM
MCF-7 cells [3]
  DoR QPI: 0.8
  ToR 20 μM: 5.9
MCF-7 cells [4]; 72 h CTG, MCF-7, Hill fit
  Hill Slope: 5.079 and 4.965
  log10(EC50): 3.291
MCF-7 cells [4]; 72 h CTG
  Min Asymptote: 0.368 (2×) and 0.4065
MCF-7 cells [4]; [9]
  EC50: 0.455 nM
MCF-7 cells [4]; MCF7, MCF-7 cell line, CellTiter-Glo, read-out: EC50, CTG (converted)
  EC50: 0.501 nM
MCF-7 cells [4]; CellTiter-Glo
  DoR CTG: 0.6

## CC(=O)c1c(C)c2cnc(Nc3ccc(N4CCNCC4)cn3)nc2n(C2CCCC2)c1=O [Palbociclib]
BT-474 cells [1]; 24 h CTG, BT-474, Hill fit
  Hill Slope: 6.945
BT-474 cells [1]; 24 h CTG
  Min Asymptote: 0.2202
BT-474 cells [1]; 72 h CTG, BT-474, Hill fit
  Hill Slope: 5.467 and 7.802
BT-474 cells [1]; 72 h CTG
  Min Asymptote: 0.01628 and 0.01895
BT-474 cells [1]
  DoR CTG: 0.9
BT-474 cells [1]; [5]
  EC50: 14200 nM
MDA-MB-231 cells; 24 h CTG, MDA-MB-231, Hill fit
  Hill Slope: 6.945
MDA-MB-231 cells; 24 h CTG
  Min Asymptote: 0.2202
MDA-MB-231 cells; 72 h CTG
  Min Asymptote: 0.01895 and 7.98E−09
MDA-MB-231 cells; [6]
  EC50: 14200 nM
MDA-MB-231 cells
  DoR CTG: 0.7
BT-474 cells [2]; 24 h QPI
  Max Asymptote: 0.01082 and 0.008556 and 0.008815
  Min Asymptote: −0.01762 and −0.0277 and −0.01394
  Hill Slope: 2.2846 and 1.7745 and 2.7163
BT-474 cells [2]; 24 h QPI, EC50 in μM per Table 1
  log10(EC50): −1.2331 and −1.2554
BT-474 cells [2]; 72 h QPI
  Max Asymptote: −0.01228 and −0.0216 and −0.01047
  Min Asymptote: 0.008887 and 0.008838 and 0.006465
BT-474 cells [2]; [7]
  log10(EC50): −1.2071 and −1.2126
BT-474 cells [2]
  DoR QPI: 1.6
  ToR 20 μM: −3.0
BT-474 cells [2]; BT-474, 24 h, read-out: log10(EC50), 24 h QPI, BT-474, Hill fit (converted), EC50 in μM per Table 1
  EC50: 13.9 µM
BT-474 cells [2]; [8]
  EC50: 12.3 µM
BT-474 cells [2]; BT-474, read-out: EC50, QPI, BT-474 cell line, QPI growth rate
  EC50: 11.8 µM
MCF-7 cells [3]; 24 h QPI
  Max Asymptote: 0.02169
  Min Asymptote: 0.01657 and 0.02043
  Hill Slope: 1.6152 and 1.0687
MCF-7 cells [3]; 72 h QPI
  Max Asymptote: 0.009479 and 0.01292
  Min Asymptote: 0.01776 and 0.02128
MCF-7 cells [3]
  DoR QPI: 1.0
  ToR 20 μM: 4.4
MCF-7 cells [4]; 72 h CTG, MCF-7, Hill fit
  Hill Slope: 0.7617 and 0.9004
  log10(EC50): −0.1876
MCF-7 cells [4]; 72 h CTG
  Min Asymptote: 0.1244 (2×) and 0.221
MCF-7 cells [4]; [9]
  EC50: 1620 nM
MCF-7 cells [4]; CellTiter-Glo
  DoR CTG: 1.0
